Measured values from patent US7417061B2, “Oxadiazole compounds and compositions for delivering active agents” (MHR Institutional Partners IIA LP, priority 1999, dated 2008).

Test: Oral delivery of rhGH with delivery agent compound in rats; serum rhGH by immunoassay
Type: in vivo, rat
Details: male Sprague-Dawley rats, compound 200 mg/kg, rhGH 3 mg/kg, 1 ml/kg, pooled samples (except compound 1)
Procedure: Oral gavage (PO) and/or intracolonic (IC) dosing solutions of delivery agent compound and rhGH in phosphate buffer were prepared. A solution of the compound was made either with the sodium salt of the compound or by converting the free acid to its sodium salt. Typically, a solution of the compound was prepared in phosphate buffer and stirred, adding one equivalent of sodium hydroxide (1.0 N) when making the sodium salt. The final dosing solutions were prepared by mixing the compound solution with an rhGH stock solution (15 mg rhGH/ml) and diluting to the desired volume (usually 3.0 ml). The compounds and rhGH dose amounts are listed below in Table 3.
The typical dosing and sampling protocols were as follows. Male Sprague-Dawley rats weighing between 200-250 g were fasted for 24 hours and administered ketamine (44 mg/kg) and chlorpromazine (1.5 mg/kg) 15 minutes prior to dosing. A dosing group of five rats was administered one of the dosing solutions. For oral gavage (PO), an 11 cm Rusch 8 French catheter was adapted to a 1 ml syringe with a pipette tip. The syringe was filled with dosing solution by drawing the solution through the catheter, which was then wiped dry. The catheter was placed down the esophagus leaving 1 cm of tubing past the rat's incisors. Solution was administered by pressing the syringe plunger. For intracolonic (IC) dosing, a 7.5 cm Rusch catheter tube (French 8 or 6) was adapted to a syringe with an Eppendorf pipette tip. The syringe was filled with the dosing solution by drawing the solution through the catheter tube. The catheter tube was wiped dry. K-Y jelly was applied to the tip, avoiding contact with the eye of the tube, and the tube was inserted into the colon through the anus until the tube was no longer visible. The solution was injected by pressing the syringe plunger, and the tube was removed.
Blood samples were collected serially from the tail artery, typically at 0, 15, 30, 45, 60 and 90 minutes after oral administration and 0, 10, 20, 30, 60 and 90 minutes after IC administration. The five samples from each time period were pooled (except for where compound 1 was dosed). Serum rHGH concentrations were quantified by an rHGH immunoassay test kit (Kit # K1F4015 from Genzyme Corporation Inc., Cambridge, Mass.). Previous studies indicated baseline values of about zero.
The maximum concentration for each group and the area under the curve (AUC), when available, are reported below in Table 3.

Row | Compound | Mean Peak Serum [rhGH] [ng/mL]
1 | Cc1nnc(CCCCCCC(=O)O)o1 [Compound 12] | 0
2 | O=C(O)CCCCCCc1nnc(-c2cc(Cl)ccc2O)o1 [Compound 5] | 14.64
3 | O=C(O)CCCCCCc1nnc(-c2cc(Cl)cc(Cl)c2O)o1 [Compound 6] | 0
4 | COc1ccc(-c2nnc(CCCCC(=O)O)o2)c(O)c1 [Compound 9] | 14.25
